From the supplement of paper PMC11208160

Assay: recombinant barcode read abundance after kanamycin selection (control-corrected) (log10(CPM+1)); higher = more efficient recombination; sequences stand for … in AGTGCAGAGAAAATCGGCCAGTTTTCTCTGCCTGCAGTCCGCATGCCGT…AGATTTATGCAGCGGACTGCCTTTCTCCCAAAGTGATAAACCGGACAGTATCATGGACCGGTTTTCCCGGTAATCCGTATTTGCAAGGTTGGTTTCACT; site = the 11-nt target
Outline: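 Targets were screened in pooled form in E. coli against IS621 bridge RNA target-binding loops. Recombination efficiency is based on barcode counts at recombinant junctions in counts per million, averaged and corrected for the control. Numbers are shown as log10(CPM+1), with duplicate plates on chloramphenicol/ampicillin LB agar (control) or chloramphenicol/ampicillin/kanamycin with 0.1 mM IPTG.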
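Also: IS621 recombinase and bridge RNA in Escherichia coli cells.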

Sequence	recombinant barcode read abundance (log10)
CAAAGGCCTTGGGTTCTAACCTGTTGCCT (site CAAGGGCCTAG)	0.228
CAAAGGCCTTGGGTTCTAACCTGTTGCCT (site CAATGGCCTAG)	0.157
CAAAGGTCTTGGGTTCTAACCTGTTGCTA (site CAAAGGTCTTA)	1.39
CAAAGGTCTTGGGTTCTAACCTGTTGCTA (site TAAAGGCCTTA)	0.0182
CAAAGTGCTTGGGTTCTAACCTGTTGCCT (site CAAAGTGCTAG)	0.517
CAAAGTGCTTGGGTTCTAACCTGTTGCCT (site GAAAGTGCTAG)	0.205
CAAATGTCTTGGGTTCTAACCTGTTGCCT (site AAAATGCCTAG)	0.299
CAAATGTCTTGGGTTCTAACCTGTTGCCT (site CAAATGTCTAG)	1.1
CAACACCCTTGGGTTCTAACCTGTTGCAT (site CAACACCCTAT)	2.33
CAACACCCTTGGGTTCTAACCTGTTGCAT (site GTTTCAACTTG)	0.157
CAACCACCTTGGGTTCTAACCTGTTGCTT (site CAAACACCTAA)	0.142
CAACCACCTTGGGTTCTAACCTGTTGCTT (site CAACCACCTAA)	1.41
CAACCACCTTGGGTTCTAACCTGTTGCTT (site CAAGCACCTAA)	0.0953
CAACCACCTTGGGTTCTAACCTGTTGCTT (site CAATCACCTAA)	0.159
CAAGTACCTTGGGTTCTAACCTGTTGCCT (site AAAGTACCTAG)	0.343
CAAGTACCTTGGGTTCTAACCTGTTGCCT (site CAAGTACCTAG)	0.688
CAAGTACCTTGGGTTCTAACCTGTTGCCT (site GAAGTACCTAG)	0.185
CAAGTACCTTGGGTTCTAACCTGTTGCCT (site TAAGTACCTAG)	0.22
CAAGTTGCTTGGGTTCTAACCTGTTGCCT (site CAAGTAGCTAG)	0.14
CAAGTTGCTTGGGTTCTAACCTGTTGCCT (site CAAGTCGCTAG)	0.305
CAAGTTGCTTGGGTTCTAACCTGTTGCCT (site CAAGTGGCTAG)	0.227
CAAGTTGCTTGGGTTCTAACCTGTTGCCT (site CAAGTTGCTAG)	1.43
CAATGGGCTTGGGTTCTAACCTGTTGCCG (site CAATGGGCTCG)	0.961
CAATGGGCTTGGGTTCTAACCTGTTGCCG (site CGATGGACTCG)	0.179
CAATGGTCTTGGGTTCTAACCTGTTGCCT (site CAATGGTCTAA)	0.376
CAATGGTCTTGGGTTCTAACCTGTTGCCT (site CAATGGTCTAC)	0.0107

Sequence	recombinant barcode read abundance (log10)
CAATGGTCTTGGGTTCTAACCTGTTGCCT (site CAATGGTCTAG)	1.54
CAATGGTCTTGGGTTCTAACCTGTTGCCT (site CAATGGTCTAT)	0.939
CAATGGTCTTGGGTTCTAACCTGTTGCGT (site CAATGGTCTAA)	0.583
CAATGGTCTTGGGTTCTAACCTGTTGCGT (site CAATGGTCTAC)	3.06
CAATGGTCTTGGGTTCTAACCTGTTGCGT (site CAATGGTCTAG)	0.638
CAATGGTCTTGGGTTCTAACCTGTTGCGT (site CAATGGTCTAT)	2.16
CACAATCCTTGGGTTCTAACCTGTTGCGT (site CACAATCCTAC)	1.76
CACAATCCTTGGGTTCTAACCTGTTGCGT (site CACACACCTAC)	0.0965
CACACGACTTGGGTTCTAACCTGTTGCCT (site CACACGACTAG)	0.99
CACACGACTTGGGTTCTAACCTGTTGCCT (site CACACGTCTAG)	0.109
CACACGTCTTGGGTTCTAACCTGTTGCCT (site CACACGACTAG)	0.103
CACACGTCTTGGGTTCTAACCTGTTGCCT (site CACACGTCTAG)	1.24
CACACTACTTGGGTTCTAACCTGTTGCTG (site CACACTACTCA)	0.818
CACACTACTTGGGTTCTAACCTGTTGCTG (site GGTGAGCCTAC)	0.24
CACAGACCTTGGGTTCTAACCTGTTGCCT (site AACAGACCTAG)	0.00929
CACAGACCTTGGGTTCTAACCTGTTGCCT (site CACAGACCTAG)	1.47
CACAGACCTTGGGTTCTAACCTGTTGCCT (site GACAGACCTAG)	0.205
CACAGACCTTGGGTTCTAACCTGTTGCCT (site TACAGACCTAG)	0.251
CACAGATCTTGGGTTCTAACCTGTTGCTT (site CAAAGATCTAA)	0.14
CACAGATCTTGGGTTCTAACCTGTTGCTT (site CACAGATCTAA)	0.351
CACAGATCTTGGGTTCTAACCTGTTGCTT (site CAGAGATCTAA)	0.122
CACAGATCTTGGGTTCTAACCTGTTGCTT (site CATAGATCTAA)	0.0763
CACAGTACTTGGGTTCTAACCTGTTGCCT (site AACAGTACTAG)	0.0407
CACAGTACTTGGGTTCTAACCTGTTGCCT (site CACAGTACTAG)	0.901
CACAGTACTTGGGTTCTAACCTGTTGCCT (site GACAGTACTAG)	0.29
CACAGTACTTGGGTTCTAACCTGTTGCCT (site TACAGTACTAG)	0.0394

Sequence	recombinant barcode read abundance (log10)
CACAGTCCTTGGGTTCTAACCTGTTGCTA (site AGGGTCGCTAG)	0.049
CACAGTCCTTGGGTTCTAACCTGTTGCTA (site CACAGTCCTTA)	0.966
CACCAAACTTGGGTTCTAACCTGTTGCCT (site CACCAAACTAG)	0.299
CACCAAACTTGGGTTCTAACCTGTTGCCT (site CACCAACCTAG)	0.0986
CACCACCCTTGGGTTCTAACCTGTTGCGG (site CACCACCCTCC)	1.35
CACCACCCTTGGGTTCTAACCTGTTGCGG (site GGTACTTCTAA)	0.358
CACCGAGCTTGGGTTCTAACCTGTTGCCG (site CAACGAGCTCG)	0.223
CACCGAGCTTGGGTTCTAACCTGTTGCCG (site CACCGAGCTCG)	0.577
CACCGAGCTTGGGTTCTAACCTGTTGCCG (site CAGCGAGCTCG)	0.534
CACCGAGCTTGGGTTCTAACCTGTTGCCG (site CATCGAGCTCG)	0.145
CACGAGCCTTGGGTTCTAACCTGTTGCCT (site CACGAGACTAG)	0.149
CACGAGCCTTGGGTTCTAACCTGTTGCCT (site CACGAGCCTAG)	2.24
CACGAGCCTTGGGTTCTAACCTGTTGCCT (site CACGAGGCTAG)	0.0367
CACGAGCCTTGGGTTCTAACCTGTTGCCT (site CACGAGTCTAG)	1.63
CACGCATCTTGGGTTCTAACCTGTTGCCT (site CACCAATCTAG)	0.211
CACGCATCTTGGGTTCTAACCTGTTGCCT (site CACGCATCTAG)	0.822
CACGGAACTTGGGTTCTAACCTGTTGCCT (site CACGGAACTAG)	1.82
CACGGAACTTGGGTTCTAACCTGTTGCCT (site CACGTTACTAG)	0.59
CACGGGCCTTGGGTTCTAACCTGTTGCCT (site CACGGGCCTAG)	0.466
CACGGGCCTTGGGTTCTAACCTGTTGCCT (site GACAGGCCTAG)	0.0551
CACTAGACTTGGGTTCTAACCTGTTGCCG (site CACTAGACTCG)	1.37
CACTAGACTTGGGTTCTAACCTGTTGCCG (site GTGACTGCTAC)	0.242
CACTCCTCTTGGGTTCTAACCTGTTGCTT (site CACTCCTCTAA)	0.0523
CACTCCTCTTGGGTTCTAACCTGTTGCTT (site CTCTGCTCTAA)	0.0209
CACTGAGCTTGGGTTCTAACCTGTTGCCT (site CACTGAGCTAG)	0.845
